We go through 38 compounds from ChEMBL document CHEMBL1152383, “Design and synthesis of indole, 2,3-dihydro-indole, and 3,4-dihydro-2H-quinoline-1-carbothioic acid amide derivatives as novel HCV inhibitors” (Bioorg Med Chem Lett, 2009).

As usually defined, the CC50 is the concentration giving 50% cytotoxicity. The low end stands for harm at low concentration, the high end for better tolerance by the cells. By EC50 is commonly meant the midpoint of the concentration-response curve.

SMILES strings stand for the structures. A value given as a limit tells only on which side of the number the result lay.

A short description of data set [1]: Cytotoxicity against human HuH7 cells. In kind it is cell-based, Huh-7.
Data set [2] can be described thus: Selectivity index, ratio of CC50 for human HuH7 cells to EC50 for HCV 1b. Set-up: species or system Huh-7.
The next data set concerns Hepatitis C virus. Kind of data set: Antiviral activity against HCV 1b infected in human HuH7 cells assessed as inhibition of viral sub-genomic replication by EG(delta-4AB)SEAP reporter protein assay. Type of data set: functional, organism-based, Hepacivirus hominis. The note with it: genotype 1b, Huh-7.

`O=C(NC(=S)N1CCc2c(OCc3ccccc3)cccc21)c1ccccc1` came in with a CC50 in data set [1] above 50 µM. In addition, in data set [2], the “Ratio CC50/EC50” value is reported as above 16. Further, in the data set with Hepatitis C virus, the EC50 was 3.18 µM.
`Cc1ccc(C(=O)NC(=S)N2CCc3c(OCCCCCOc4ccc(Cl)cc4)cccc32)cc1` registered a CC50 in data set [1] above 50 µM. Further, the “Ratio CC50/EC50” value in data set [2] is above 26. In the data set with Hepatitis C virus, the EC50 was determined as 1.94 µM.
For `O=C(NC(=S)N1CCc2c(OCCCCCOc3ccc(Cl)cc3)cccc21)c1ccccc1[N+](=O)[O-]`, in data set [1], the CC50 was above 50 µM. The “Ratio CC50/EC50” value in data set [2] is on record as above 30. Besides, in the data set on Hepatitis C virus, the EC50 was 1.65 µM.
`O=C(NC(=S)N1CCc2ccc(OCc3ccccc3)cc21)c1ccccc1` had a CC50 in data set [1] of 43.8 µM. In data set [2], the “Ratio CC50/EC50” value is reported as 9. Besides, the EC50 in the data set with Hepatitis C virus stood at 5.05 µM.
Compound `O=C(NC(=S)N1CCc2c(OCCCCCOc3ccc(Cl)cc3)cccc21)c1ccno1` registered a CC50 in data set [1] of 37.1 µM. For the same compound, in data set [2], the “Ratio CC50/EC50” value was 18. For the same compound, in the data set on Hepatitis C virus, the EC50 turned out to be 2.06 µM.
As for `O=C(NC(=S)N1CCc2c(OCCCCCOc3ccc(Cl)cc3)cccc21)c1ccccc1`, in data set [1], the CC50 is above 50 µM. Also, the Ratio CC50/EC50 in data set [2] is above 63. For the same compound, in the data set on Hepatitis C virus, the EC50 was determined as 0.79 µM.
For `O=C(NC(=S)N1CCc2c(OCCCCCOc3ccc(Cl)cc3)cccc21)c1cccs1`, in that order: 10.7 µM, 16 and 0.66 µM.
In the case of `N#Cc1ccc(C(=O)NC(=S)N2CCc3c(OCCCCCOc4ccc(Cl)cc4)cccc32)cc1`, the CC50 in data set [1] was above 50 µM. In addition, the “Ratio CC50/EC50” value in data set [2] is above 98. Also, the EC50 with Hepatitis C virus worked out at 0.51 µM.
`NC(=S)n1ccc2c(OCCCCCOc3ccc(Cl)cc3)cccc21`: in data set [1], it took 24.7 µM to reach half-maximal cytotoxicity (CC50). Also, the “Ratio CC50/EC50” value in data set [2] turned out to be 1. Moreover, the EC50 with Hepatitis C virus was 24.5 µM.
On the same counts, the results for `O=C(NC(=S)N1CCc2c(OCCCCCOc3ccc(Cl)cc3)cccc21)c1ccsc1` are above 50 µM, above 49 and 1.02 µM.
In turn, `N#Cc1cccc(C(=O)NC(=S)N2CCc3c(OCCCCCOc4ccc(Cl)cc4)cccc32)c1` displayed a CC50 in data set [1] of 9.75 µM. In addition, in data set [2], the “Ratio CC50/EC50” value is 17. Further, the EC50 with Hepatitis C virus is 0.57 µM.
In data set [1], `O=C(NC(=S)N1CCc2c(OCCCCCOc3ccc(Cl)cc3)cccc21)c1ccc(Cl)cc1` registered a CC50 of 21.7 µM. Further, in data set [2], the “Ratio CC50/EC50” value was found to be 31. The EC50 with Hepatitis C virus is 0.69 µM.
On the same counts, the results for `O=C(NC(=S)N1CCc2c(OCCCCCOc3ccc(Cl)cc3)cccc21)c1cccc([N+](=O)[O-])c1` are 12.1 µM, 21 and 0.58 µM.
For `CCCC(=O)NC(=S)N1CCc2c(OCCCCCOc3ccc(Cl)cc3)cccc21`, in data set [1], the CC50 is above 50 µM. The “Ratio CC50/EC50” value in data set [2] is on record as 2. The EC50 in the data set on Hepatitis C virus turned out to be 31.6 µM.
The compound `O=C(NC(=S)N1CCc2c(OCCCCCOc3ccc(Cl)cc3)cccc21)c1ccoc1` yielded a CC50 in data set [1] of 20.1 µM. For the same compound, the “Ratio CC50/EC50” value in data set [2] came out at 12. Besides, in the data set on Hepatitis C virus, the EC50 amounted to 1.72 µM.
For `S=C(NC(=S)N1CCc2c(OCCCCCOc3ccc(Cl)cc3)cccc21)Oc1ccccc1`, in that order: above 50 µM, above 1 and above 50 µM.
`O=C(NC(=S)N1CCc2cc(OCc3ccccc3)ccc21)c1ccccc1` gave a half-maximal cytotoxic concentration (CC50) in data set [1] of 45.2 µM. In addition, the “Ratio CC50/EC50” value in data set [2] is listed as 9. Besides, the EC50 in the data set with Hepatitis C virus came out at 4.81 µM.
In turn, `O=C(NC(=S)N1CCc2c(OCCCCCOc3ccc(Cl)cc3)cccc21)c1ccco1` yielded a CC50 in data set [1] of 4.62 µM. For the same compound, in data set [2], the “Ratio CC50/EC50” value stood at 8. For the same compound, in the data set with Hepatitis C virus, the concentration giving a half-maximal response (EC50) amounted to 0.58 µM.
Take `O=C(NC(=S)N1CCc2c(OCCCCCOc3ccc(Cl)cc3)cccc21)C1CCCCC1`: the CC50 in data set [1] was above 50 µM. Besides, the “Ratio CC50/EC50” value in data set [2] is listed as above 1. The EC50 in the data set on Hepatitis C virus stood at 42.5 µM.
Compound `O=C(NC(=S)N1CCc2c(OCCCCCOc3ccc(Cl)cc3)cccc21)c1ccc2ccccc2c1` gave a CC50 in data set [1] above 50 µM. Further, the “Ratio CC50/EC50” value in data set [2] is listed as above 23. In addition, the EC50 in the data set on Hepatitis C virus was determined as 2.16 µM.
On the same counts, the results for `O=C(NC(=S)N1CCc2c(OCCCCCOc3ccc(Cl)cc3)cccc21)c1cccnc1` are 11.1 µM, 5 and 2.37 µM.
Consider `O=C(NC(=S)N1CCc2c(OCCCCCOc3ccc(Cl)cc3)cccc21)c1ccc(C(F)(F)F)cc1`, for which it took 32.7 µM to reach half-maximal cytotoxicity in data set [1] (CC50). Also, the “Ratio CC50/EC50” value in data set [2] was 27. The EC50 with Hepatitis C virus worked out at 1.23 µM.
With `O=C(CCc1ccccc1)NC(=S)N1CCc2c(OCCCCCOc3ccc(Cl)cc3)cccc21`, in data set [1], the CC50 is above 50 µM. Further, in data set [2], the “Ratio CC50/EC50” value is reported as above 4. Further, the EC50 in the data set with Hepatitis C virus amounted to 13.4 µM.
Consider `COc1ccc(C(=O)NC(=S)N2CCc3c(OCCCCCOc4ccc(Cl)cc4)cccc32)cc1`, for which, in data set [1], the CC50 came out at 34.4 µM. Also, the “Ratio CC50/EC50” value in data set [2] was determined as 17. Also, the EC50 in the data set on Hepatitis C virus was found to be 2.02 µM.
In the case of `O=C(NC(=S)N1CCc2cccc(OCc3ccccc3)c21)c1ccccc1`, the CC50 in data set [1] was above 50 µM. In addition, in data set [2], the “Ratio CC50/EC50” value is above 1. Moreover, in the data set with Hepatitis C virus, the EC50 was above 50 µM.
Compound `O=C(NC(=S)N1CCc2c(OCCCCCOc3ccc(Cl)cc3)cccc21)c1ccc(Br)cc1` yielded a CC50 in data set [1] of 29.1 µM. In addition, the “Ratio CC50/EC50” value in data set [2] is listed as 33. In addition, the EC50 in the data set with Hepatitis C virus was 0.88 µM.
On the same counts, the results for `O=C(NC(=S)N1CCc2c(OCCCCCOc3ccc(Cl)cc3)cccc21)c1ccc(F)cc1` are 31.1 µM, 33 and 0.95 µM.
With `CC(C)(C)c1ccc(C(=O)NC(=S)N2CCc3c(OCCCCCOc4ccc(Cl)cc4)cccc32)cc1`, the CC50 in data set [1] was above 50 µM. Besides, the “Ratio CC50/EC50” value in data set [2] was above 26. Moreover, in the data set with Hepatitis C virus, the 50% effective concentration (EC50) is 1.95 µM.
For `O=S(=O)(NC(=S)N1CCc2c(OCCCCCOc3ccc(Cl)cc3)cccc21)c1ccccc1`, in that order: above 50 µM, above 1 and above 50 µM.
As for `O=C(NC(=S)N1CCc2c(OCCCCCOc3ccc(Cl)cc3)cccc21)c1cc2ccccc2s1`, in data set [1], the CC50 is above 50 µM. In addition, in data set [2], the “Ratio CC50/EC50” value is listed as above 45. The EC50 in the data set with Hepatitis C virus is 1.1 µM.
`O=C(NC(=S)n1ccc2c(OCCCCCOc3ccc(Cl)cc3)cccc21)c1ccccc1` gave a CC50 in data set [1] of 29.5 µM. For the same compound, the “Ratio CC50/EC50” value in data set [2] came out at 7. For the same compound, the EC50 in the data set on Hepatitis C virus worked out at 4.06 µM.
Consider `O=C(NC(=S)N1CCc2c(OCCCCCOc3ccc(Cl)cc3)cccc21)C1CCCC1`, for which the CC50 in data set [1] was above 50 µM. The “Ratio CC50/EC50” value in data set [2] is listed as above 2. Moreover, the EC50 with Hepatitis C virus came to 25.4 µM.
In the case of `O=C(NC(=S)N1CCc2c(OCCCCCOc3ccc(Cl)cc3)cccc21)c1ccc([N+](=O)[O-])cc1`, in data set [1], the CC50 was 13.6 µM. The “Ratio CC50/EC50” value in data set [2] was determined as 19. In the data set with Hepatitis C virus, the EC50 came out at 0.72 µM.
On to `CN(C)c1ccc(C(=O)NC(=S)N2CCc3c(OCCCCCOc4ccc(Cl)cc4)cccc32)cc1`, for which the CC50 in data set [1] was above 50 µM. For the same compound, in data set [2], the “Ratio CC50/EC50” value is above 1. In addition, the EC50 in the data set on Hepatitis C virus was 42.4 µM.
As for `NC(=S)Nc1cccc(Oc2ccccc2)c1`, the 50% effective concentration (EC50) in the data set with Hepatitis C virus came out at 0.49 µM.
On to `O=C(NC(=S)N1CCc2c(OCCCCCOc3ccc(Cl)cc3)cccc21)Oc1ccccc1`, for which the CC50 in data set [1] was above 50 µM. Further, in data set [2], the “Ratio CC50/EC50” value is recorded as above 1. For the same compound, in the data set with Hepatitis C virus, the EC50 is above 50 µM.
The compound `NC(=S)N1CCc2c(OCCCCCOc3ccc(Cl)cc3)cccc21` gave a CC50 in data set [1] above 50 µM. Also, the “Ratio CC50/EC50” value in data set [2] is above 11. Besides, the EC50 with Hepatitis C virus came to 4.71 µM.
The compound `NC(=S)N1CCCc2c(OCCCCCOc3cccc4ccccc34)cccc21` registered a half-maximal cytotoxic concentration (CC50) in data set [1] above 50 µM. Further, in data set [2], the “Ratio CC50/EC50” value is reported as above 1. For the same compound, the EC50 in the data set on Hepatitis C virus was above 50 µM.
